“Also recorded” adds a separate entry of the source. *1 amine or outer side, *2 acyl side, *3 side chain or, on linkers, in order; H or OH if unused. Where a SMILES comes first, the peptide text is derived from it. [ ]: non-standard residue; d: D form. Leu(5,5,5,5',5',5'-F6) = N[C@@H](CC(C(F)(F)F)C(F)(F)F)C(=O)O; X1 = C[C@@H](CC(F)(F)F)[C@H](N[*:1])C(=O)[*:2]; 2Abz = Nc1ccccc1C(=O)O
Experiments:
[1] = target: pepsin (EC 3.4.23.1) (Sus scrofa, UniProt P00791); experiment: in vitro
Method: (§1) The course of proteolytic digestion was characterized by an analytical HPLC-assay with fluorescence detection. For quantification of substrate degradation, integration of the corresponding HPLC peak was conducted. Cleavage products were identified by ESI–ToF mass spectrometry (see Supporting Information File 1, Tables S4–S7).
(§2) All peptides employed in the degradation studies were used as the TFA salts obtained after lyophilization. Stock solutions of α-chymotrypsin (from bovine pancreas, EC 3.4.21.1, ≥40.0 units/mg of protein, Sigma Aldrich, St. Louis, MO, USA), and pepsin (from porcine stomach mucosa, EC 3.4.23.1, ≥250 units/mg of protein, Sigma Aldrich, St. Louis, MO, USA) were prepared at concentrations of 1 mg/mL in phosphate buffer (10 mM, pH 7.4), or in acetate buffer (10 mM, pH 4.0), respectively. For proteinase K (from tritirachium album, EC 3.4.21.64, ≥30 units/mg of protein, Sigma Aldrich, St. Louis, MO, USA) and elastase (from porcine pancreas, EC 3.4.21.36, 6.2 units/mg of protein, Sigma Aldrich, St. Louis, MO, USA) stock solutions were prepared also at concentrations of 1 mg/mL in tris/HCl (50 mM) + CaCl2 (10 mM) buffer (pH 7.5), or in tris/HCl buffer (100 mM, pH 8.4), respectively. Peptides (0.002 mmol) were prepared as stocks in DMSO (100 µL) and incubated with the respective enzyme at 30 °C (for α-chymotrypsin and pepsin) or 37 °C (for proteinase K and elastase) with shaking at 300 rpm in a thermomixer over a period of 24 h. The reaction mixture consisted of DMSO (15 µL), corresponding buffer (25 µL), peptide solution (5 µL) and the corresponding enzyme solution (5 µL). […] Aliquots of 5 µL were taken at fixed time points (0, 15, 30, 60, 90, 120 min as well as 3 h and 24 h) and either quenched with ACN containing 0.1% (v/v) TFA (95 µL), in the case of α-chymotrypsin, proteinase K and elastase, or 2% aqueous ammonia (95 µL), in the case of pepsin. All samples were subjected to analytical HPLC on a LaChrom-ELITE-HPLC-System equipped with a fluorescence detector (VWR International Hitachi, Darmstadt, Germany). A monolithic reversed-phase C8 Chromolith® Performance HPLC column (100 × 4.6 mm, Merck KGaA, Darmstadt, Germany) was used to resolve and quantify the products of digestion. The used system and gradients are described in detail in Supporting Information File 1. Detection based on the Abz label was carried out using a fluorescence detector with λex = 320 nm and λem = 420 nm. In all cases, the peaks corresponding to the starting materials (full-length peptides) or the N-terminal fragments (products) were integrated and used to determine the velocity of the reaction (see Supporting Information File 1). […] Each fragment cleaved from the full-length peptide was identified by ESI–ToF mass analysis on an Agilent 6220 ESI–ToF–MS spectrometer (Agilent Technologies, Santa Clara, CA, USA, see Supporting Information File 1). All experiments were performed in triplicate.
(§3) 2130) with solvent degasser, an autosampler (L-2200) with a 100 µL sample loop, a diode array flow detector (L-2455), a fluorescence detector (L-2485) and a high pressure gradient mixer. As eluents water and ACN, both containing 0.1% (v/v) TFA were used, and a flow rate of 3 mL/min was applied. The used linear gradients are […]
(§4) For the non-fluorinated peptides method A was used to follow the digestion process, and for the fluorinated peptides method B was applied. For […]
(§5) The obtained data were analyzed with EZChrom Elite software
(§6) (version 3.3.2, Agilent Technologies, Santa Clara, CA, USA).

[2] = target: elastase (EC 3.4.21.36) (Sus scrofa, UniProt P00772); settings: elastase, 100 mM Tris/HCl buffer pH 8.4, 37 °C; for Proteolytic stability compared to control peptide FA after 24 h: FL-RP-HPLC; for Gain in stability upon fluorination compared to the non-fluorinated (Leu or Ile) analogue, 24 h: after 24 h
Method: as §1, §2, §3, §4, §5, §6

[3] = target: T1, α-chymotrypsin (EC 3.4.21.1) (Bos taurus, UniProt P00766); experiment: Protease digestion assay with α-chymotrypsin (FL-RP-HPLC); format: in vitro ADME, bovine
T1 construct: purchased Sigma Aldrich; host or cells: bovine pancreas
Method: The FA peptide was used as a reference. […] All experiments were performed in triplicate.
The used linear gradients are
chromatograms where an insufficient baseline separation was observed,
(proteinase K)]. The obtained data were analyzed with EZChrom Elite software
Method Time [min] Water + 0.1% (v/v) TFA [%] ACN + 0.1% (v/v) TFA [%]

[4] = tested on: proteinase K (EC 3.4.21.64); experiment: proteinase K in 50 mM Tris/HCl buffer, containing 10 mM CaCl2 pH 7.5; settings: tritirachium album, 37 °C, up to 24 h
[5] = tested on: pepsin (EC 3.4.23.1); experiment: pepsin in 10 mM acetate buffer, pH 4.0; settings: porcine stomach mucosa, 30 °C, up to 24 h
[6] = tested on: α-chymotrypsin (EC 3.4.21.1); experiment: α-chymotrypsin in 10 mM phosphate buffer, pH 7.4; settings: bovine pancreas, 30 °C, up to 24 h
[7] = tested on: elastase (EC 3.4.21.36); experiment: elastase in 100 mM Tris/HCl buffer, pH 8.4; settings: porcine pancreas, 37 °C, up to 24 h

pepsin (EC 3.4.23.1) (Sus scrofa, UniProt P00791), sequence (P00791 60-385): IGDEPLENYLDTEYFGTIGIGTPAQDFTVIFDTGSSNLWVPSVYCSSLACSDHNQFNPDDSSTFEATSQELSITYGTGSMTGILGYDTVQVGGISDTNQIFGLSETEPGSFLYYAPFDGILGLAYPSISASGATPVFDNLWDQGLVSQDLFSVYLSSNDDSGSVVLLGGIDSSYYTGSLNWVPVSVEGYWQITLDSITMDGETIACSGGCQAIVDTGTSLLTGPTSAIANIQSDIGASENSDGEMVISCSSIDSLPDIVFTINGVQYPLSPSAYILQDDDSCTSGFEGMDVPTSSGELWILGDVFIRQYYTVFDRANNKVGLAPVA
elastase (EC 3.4.21.36) (Sus scrofa, UniProt P00772), sequence (P00772 27-266): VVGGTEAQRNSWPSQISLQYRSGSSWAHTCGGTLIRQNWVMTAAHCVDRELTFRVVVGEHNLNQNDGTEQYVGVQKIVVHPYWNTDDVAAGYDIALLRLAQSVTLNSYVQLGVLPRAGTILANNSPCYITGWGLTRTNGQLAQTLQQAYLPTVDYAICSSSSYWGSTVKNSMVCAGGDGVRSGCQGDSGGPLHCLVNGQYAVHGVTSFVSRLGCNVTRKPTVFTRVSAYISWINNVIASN

Row | Compound | cleaved bond [4] | cleaved bond [5] | cleaved bond [6] | cleaved bond [7] | not cleaved [7] | further results
1 | C[C@H](NC(=O)[C@H](C)NC(=O)[C@H](C)NC(=O)[C@H](Cc1ccccc1)NC(=O)[C@H](C)NC(=O)[C@H](C)NC(=O)[C@H](CCCCN)NC(=O)c1ccccc1N)C(=O)N[C@@H](C)C(=O)N[C@@H](CCCCN)C(=O)O [FA] (H-[2Abz]KAAFAAAAK-OH) | – | – | – | – | – | Percentage of substrate remaining after incubation for 24 h ([1]; pepsin (porcine stomach mucosa), 10 mM acetate buffer pH 4.0 with DMSO, 30 °C, 24 h, FL-RP-HPLC peak integration (Abz, λex 320/λem 420 nm), average of three independent measurements): almost completely degraded
2 | C[C@H](NC(=O)[C@H](C)NC(=O)[C@H](CC(C(F)(F)F)C(F)(F)F)NC(=O)[C@H](Cc1ccccc1)NC(=O)[C@H](C)NC(=O)[C@H](C)NC(=O)[C@H](CCCCN)NC(=O)c1ccccc1N)C(=O)N[C@@H](C)C(=O)N[C@@H](CCCCN)C(=O)O [P1’-HfLeuFA] (H-[2Abz]KAAF[Leu(5,5,5,5',5',5'-F6)]AAAK-OH) | – | – | – | – | – | Proteolytic stability compared to control peptide FA after 24 h [2]: more stable than the control peptide FA; Gain in stability upon fluorination compared to the non-fluorinated (Leu or Ile) analogue, 24 h [2]: 85%; Gain in proteolytic stability upon fluorination compared to the non-fluorinated (Leu or Ile) analogue ([3]; α-chymotrypsin, 10 mM phosphate buffer pH 7.4, 30 °C, after 24 h, FL-RP-HPLC): better substrate than the non-fluorinated Leu peptide; Proteolytic stability compared to control peptide FA after 120 min ([1]; pepsin, 10 mM acetate buffer pH 4.0, 30 °C, 120 min, FL-RP-HPLC): same persistence; Proteolytic stability compared to control peptide FA after 24 h ([1]; pepsin, 10 mM acetate buffer pH 4.0, 30 °C, 24 h, FL-RP-HPLC): somewhat more stable than the control FA; Stabilization upon fluorination compared to the non-fluorinated analogue, 120 min ([1]; pepsin, 10 mM acetate buffer pH 4.0, 30 °C, after 120 min): about 20%; Destabilization compared to the hydrocarbon analogue, 24 h ([1]; pepsin, 10 mM acetate buffer pH 4.0, 30 °C, after 24 h): 17%
3 | CC[C@H](C)[C@H](NC(=O)[C@H](Cc1ccccc1)NC(=O)[C@H](C)NC(=O)[C@H](C)NC(=O)[C@H](CCCCN)NC(=O)c1ccccc1N)C(=O)N[C@@H](C)C(=O)N[C@@H](C)C(=O)N[C@@H](C)C(=O)N[C@@H](CCCCN)C(=O)O [P1’-IleFA] (H-[2Abz]KAAFIAAAK-OH) | – | – | – | – | – | Proteolytic stability compared to control peptide FA after 24 h [2]: more stable than the control peptide FA
4 | C[C@H](NC(=O)[C@H](C)NC(=O)[C@@H](NC(=O)[C@H](Cc1ccccc1)NC(=O)[C@H](C)NC(=O)[C@H](C)NC(=O)[C@H](CCCCN)NC(=O)c1ccccc1N)[C@@H](C)CC(F)(F)F)C(=O)N[C@@H](C)C(=O)N[C@@H](CCCCN)C(=O)O [P1’-TfIleFA] (H-[2Abz]KAAF[X1]AAAK-OH) | – | – | – | – | – | Proteolytic stability compared to control peptide FA after 24 h [2]: comparably stable; Gain in stability upon fluorination compared to the non-fluorinated (Leu or Ile) analogue, 24 h [2]: accelerates enzymatic degradation
5 | CC(C)C[C@H](NC(=O)[C@H](C)NC(=O)[C@H](CCCCN)NC(=O)c1ccccc1N)C(=O)N[C@@H](Cc1ccccc1)C(=O)N[C@@H](C)C(=O)N[C@@H](C)C(=O)N[C@@H](C)C(=O)N[C@@H](C)C(=O)N[C@@H](CCCCN)C(=O)O [P2-LeuFA] (H-[2Abz]KALFAAAAK-OH) | – | – | – | – | – | Percentage of substrate remaining after incubation for 24 h ([3]; α-chymotrypsin (bovine pancreas), 10 mM phosphate buffer pH 7.4 with DMSO, 30 °C, 24 h, FL-RP-HPLC peak integration (Abz, λex 320/λem 420 nm), average of three independent measurements): complete proteolysis
6 | Abz-KAAFHfLeuAAAK | A-F | F-HfLeu; also recorded: HfLeu-Ala | F-HfLeu, major; also recorded: HfLeu-A | K-A and A-A | no fragments with Phe in the P1 position observed | –
7 | Abz-KAAFTfIleAAAK | A-F and A-A | F-TfIle | F-TfIle, major | A-A | no fragments with Phe in the P1 position observed | –
8 | Abz-KAIleFAAAAK | F-A | F-A | F-A, major | Ile-F and A-A and A-K | no fragments with Phe in the P1 position observed | –
9 | Abz-KALeuFAAAAK | Leu-F and A-A | F-A | F-A, major | A-Leu and A-A and A-K | – | –

The next lines start with results.

Row | cleaved bond [4] | cleaved bond [5] | cleaved bond [6] | cleaved bond [7] | Compound | not cleaved [7] | further results
10 | A-A | F-A | F-A, major | A-A | Abz-KAAFAAAAK | no fragments with Phe in the P1 position observed | –
11 | A-HfLeu; also recorded: HfLeu-A | A-HfLeu | F-A, major | K-A and A-A and A-F and A-HfLeu | Abz-KAAFAHfLeuAAK | no fragments with Phe in the P1 position observed | not cleaved [5]: not hydrolyzed at the designed cleavage site
12 | A-F and A-Ile | F-A | F-A, major | A-F and Ile-A and A-A and A-K | Abz-KAAFAIleAAK | no fragments with Phe in the P1 position observed | –
13 | A-F | F-A and A-TfIle and A-F | F-A, major | A-F and TfIle-A | Abz-KAAFATfIleAAK | no fragments with Phe in the P1 position observed | –
14 | A-F and A-A | – | F-Ile, major | A-F and A-A | Abz-KAAFIleAAAK | no fragments with Phe in the P1 position observed | –
15 | A-F and A-A | F-Leu; also recorded: Leu-Ala | F-Leu, major; also recorded: Leu-A | K-A and A-A and A-F and A-K | Abz-KAAFLeuAAAK | no fragments with Phe in the P1 position observed | –
16 | HfLeu-F and A-A | F-A and HfLeu-F | – | HfLeu-F and A-A | Abz-KAHfLeuFAAAAK | no fragments with Phe in the P1 position observed | not cleaved [6]: not digested at all
17 | F-A and A-A | – | – | TfIle-F and A-A | Abz-KATfIleFAAAAK | no fragments with Phe in the P1 position observed | not cleaved [5]: 100% after 24 h; not cleaved [6]: not digested at all

Source: article PMC5753150 (Beilstein Journal of Organic Chemistry, 2017)
